Measured values as given in patent publication US7973061B2, “Anaplastic lymphoma kinase modulators and methods of use” (Exelixis, Inc., priority 2004, dated 2011).

target: T1, ALK (baculovirus expressed human ALK kinase domain F1098-K1410) (Homo sapiens, UniProt Q9UM73); experiment: biochemical; conditions: 1 μM ATP, 4 μM poly-AEKY, 12 nM ALK, 2 hours at ambient temperature; read-out: ALK IC50
T1 construct: human ALK kinase domain F1098-K1410; made in house
Description: Kinase activity and compound inhibition are investigated using one or more of the three assay formats described below. The ATP concentrations for each assay are selected to be close to the Michaelis-Menten constant (KM) for each individual kinase. Dose-response experiments are performed at 10 different inhibitor concentrations in a 384-well plate format. […] Y=Min+(Max−Min)/(1+(X/IC50)^H) Equation (2) Luciferase-Coupled Chemiluminescent Kinase Assay
ALK biochemical activity was assessed using a Luciferase-Coupled Chemiluminescent Kinase assay (LCCA) format in which kinase activity was measured as the percent ATP remaining following the kinase reaction. ATP remaining after the kinase reaction was detected by luciferase-luciferin-coupled chemiluminescence. […] The mixture was incubated at ambient temperature for 2 hours after which 20 μL luciferase-luciferin mix was added and the chemiluminescent signal read using a Wallac Victor^2 reader. […] Consumption of ATP by ALK can be quantified and utilized as a measure of inhibition of ALK activity by compounds described herein. By employing serial dilutions of compounds to be tested, the ability of test compounds to inhibit ALK activity can be determined.

T1 sequence (Q9UM73 1098-1410): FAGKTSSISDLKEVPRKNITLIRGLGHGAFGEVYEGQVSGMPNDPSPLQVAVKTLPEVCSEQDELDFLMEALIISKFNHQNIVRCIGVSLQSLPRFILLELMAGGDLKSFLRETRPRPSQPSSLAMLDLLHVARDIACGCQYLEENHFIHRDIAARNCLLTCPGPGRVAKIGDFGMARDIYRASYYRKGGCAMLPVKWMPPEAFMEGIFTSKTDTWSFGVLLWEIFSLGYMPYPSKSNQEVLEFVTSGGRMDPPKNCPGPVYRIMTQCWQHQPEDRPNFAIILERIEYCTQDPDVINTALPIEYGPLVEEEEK

IC50, 500 to 2000 nM:
O=C(COc1ccc(OC(F)(F)F)cc1)NCc1nc(C(=O)N2CCCC3CCCCC32)cs1 (stereo not drawn) [Entry 252, N-{[4-(octahydroquinolin-1(2H)-ylcarbonyl)-1,3-thiazol-2-yl]methyl}-2-({4-[(trifluoromethyl)oxy]phenyl}oxy)acetamide]
CCN1CCCC1CNC(=O)c1csc(CNC(=O)COc2ccc(OC(F)(F)F)cc2)n1 (stereo not drawn) [Entry 275, N-[(1-ethylpyrrolidin-2-yl)methyl]-2-({[({4-[(trifluoromethyl)oxy]phenyl}oxy)acetyl]amino}methyl)-1,3-thiazole-4-carboxamide]
COc1cccc(CCNC(=O)c2coc(CNC(=O)COc3ccc(OC(F)(F)F)cc3)n2)c1 [Entry 234, N-{2-[3-(methyloxy)phenyl]ethyl}-2-({[({4-[(trifluoromethyl)oxy]phenyl}oxy)acetyl]amino}methyl)-1,3-oxazole-4-carboxamide]
CC(C)CCC(C)NC(=O)c1csc(CNC(=O)COc2ccc(OC(F)(F)F)cc2)n1 (stereo not drawn) [Entry 262, N-(1,4-dimethylpentyl)-2-({[({4-[(trifluoromethyl)oxy]phenyl}oxy)acetyl]amino}methyl)-1,3-thiazole-4-carboxamide]

IC50, < 50 nM:
O=C(COc1ccc(I)cc1)NCc1nc(C(=O)NCCc2cccc(Cl)c2)cs1 [Entry 16, N-[2-(3-chlorophenyl)ethyl]-2-[({[(4-iodophenyl)oxy]acetyl}amino)methyl]-1,3-thiazole-4-carboxamide]
O=C(COc1ccc(OC(F)(F)F)cc1)NCc1nc(C(=O)NC23C[C@H]4C[C@@H](C2)C[C@@H](C3)C4)cs1 [Entry 23, N-tricyclo[3.3.1.1~3,7~]dec-1-yl-2-({[({4-[(trifluoromethyl)oxy]phenyl}oxy)acetyl]amino}methyl)-1,3-thiazole-4-carboxamide]
COc1ccc(CCNC(=O)c2csc(CNC(=O)COc3ccc(OC(F)(F)F)cc3)n2)cc1 [Entry 9, N-{2-[4-(methyloxy)phenyl]ethyl}-2-({[({4-[(trifluoromethyl)oxy]phenyl}oxy)acetyl]amino}methyl)-1,3-thiazole-4-carboxamide]
COc1cccc(CNC(=O)c2csc(CNC(=O)COc3ccc(OC(F)(F)F)cc3)n2)c1OC [Entry 11, N-{[2,3-bis(methyloxy)phenyl]methyl}-2-({[({4-[(trifluoromethyl)oxy]phenyl}oxy)acetyl]amino}methyl)-1,3-thiazole-4-carboxamide]

IC50, 50 to 500 nM:
COc1ccccc1CNC(=O)c1csc(CNC(=O)Nc2ccc(C(C)C)cc2)n1 [Entry 29, 2-{[({[4-(1-methylethyl)phenyl]amino}carbonyl)amino]methyl}-N-{[2-(methyloxy)phenyl]methyl}-1,3-thiazole-4-carboxamide]
CC(NC(=O)c1csc(CNC(=O)COc2ccc(OC(F)(F)F)cc2)n1)c1cccc2ccccc12 (stereo not drawn) [Entry 85, N-(1-naphthalen-1-ylethyl)-2-({[({4-[(trifluoromethyl)oxy]phenyl}oxy)acetyl]amino}methyl)-1,3-thiazole-4-carboxamide]
O=C(COc1ccc(OC(F)(F)F)cc1)NCc1nc(C(=O)NCC2CCCCC2)cs1 [Entry 172, N-(cyclohexylmethyl)-2-({[({4-[(trifluoromethyl)oxy]phenyl}oxy)acetyl]amino}methyl)-1,3-thiazole-4-carboxamide]
O=C(COc1ccc(OC(F)(F)F)cc1)NCc1nc(C(=O)N[C@@H](Cc2ccccc2)C(=O)N2CCCC2)cs1 [Entry 91, N-[(1S)-2-oxo-1-(phenylmethyl)-2-pyrrolidin-1-ylethyl]-2-({[({4-[(trifluoromethyl)oxy]phenyl}oxy)acetyl]amino}methyl)-1,3-thiazole-4-carboxamide]
O=C(COc1ccc(OC(F)(F)F)cc1)NCc1nc(C(=O)NCc2ccccc2OC(F)(F)F)cs1 [Entry 57, N-({2-[(trifluoromethyl)oxy]phenyl}methyl)-2-({[({4-[(trifluoromethyl)oxy]phenyl}oxy)acetyl]amino}methyl)-1,3-thiazole-4-carboxamide]
COc1ccc(CCNC(=O)c2csc(CNC(=O)COc3ccc(OC(F)(F)F)cc3)n2)cc1OC [Entry 42, N-{2-[3,4-bis(methyloxy)phenyl]ethyl}-2-({[({4-[(trifluoromethyl)oxy]phenyl}oxy)acetyl]amino}methyl)-1,3-thiazole-4-carboxamide]
CCCCCCN(C)C(=O)c1csc(CNC(=O)COc2ccc(OC(F)(F)F)cc2)n1 [Entry 193, N-hexyl-N-methyl-2-({[({4-[(trifluoromethyl)oxy]phenyl}oxy)acetyl]amino}methyl)-1,3-thiazole-4-carboxamide]
COc1ccccc1CNC(=O)c1csc(CNC(=O)c2cccnc2Oc2ccc(Cl)cc2)n1 [Entry 198, 2-[(4-chlorophenyl)oxy]-N-({4-[({[2-(methyloxy)phenyl]methyl}amino)carbonyl]-1,3-thiazol-2-yl}methyl)pyridine-3-carboxamide]
COc1cccc(CCNC(=O)c2csc(CNC(=O)COc3ccc(OC(F)(F)F)cc3)n2)c1OC [Entry 53, N-{2-[2,3-bis(methyloxy)phenyl]ethyl}-2-({[({4-[(trifluoromethyl)oxy]phenyl}oxy)acetyl]amino}methyl)-1,3-thiazole-4-carboxamide]
O=C(COc1ccc(OC(F)(F)F)cc1)NCc1nc(C(=O)N2CCN(c3c(Cl)cncc3Cl)CC2)cs1 [Entry 66, N-[(4-{[4-(3,5-dichloropyridin-4-yl)piperazin-1-yl]carbonyl}-1,3-thiazol-2-yl)methyl]-2-({4-[(trifluoromethyl)oxy]phenyl}oxy)acetamide]
CC(C)[C@H](C)NC(=O)c1csc(CNC(=O)COc2ccc(OC(F)(F)F)cc2)n1 [Entry 153, N-[(1S)-1,2-dimethylpropyl]-2-({[({4-[(trifluoromethyl)oxy]phenyl}oxy)acetyl]amino}methyl)-1,3-thiazole-4-carboxamide]
O=C(COc1ccc(OC(F)(F)F)cc1)NCc1nc(C(=O)NCCc2ccccc2Cl)cs1 [Entry 104, N-[2-(2-chlorophenyl)ethyl]-2-({[({4-[(trifluoromethyl)oxy]phenyl}oxy)acetyl]amino}methyl)-1,3-thiazole-4-carboxamide]
O=C(COc1ccc(OC(F)(F)F)cc1)NCc1nc(C(=O)NCCc2ccccc2F)co1 [Entry 143, N-[2-(2-fluorophenyl)ethyl]-2-({[({4-[(trifluoromethyl)oxy]phenyl}oxy)acetyl]amino}methyl)-1,3-oxazole-4-carboxamide]
CCCCCCNC(=O)c1csc(CNC(=O)COc2ccc(OC(F)(F)F)cc2)n1 [Entry 113, N-hexyl-2-({[({4-[(trifluoromethyl)oxy]phenyl}oxy)acetyl]amino}methyl)-1,3-thiazole-4-carboxamide]
CSc1ccc(NC(=O)NCc2nc(C(=O)NCCc3cccc(Cl)c3)cs2)cc1 [Entry 173, N-[2-(3-chlorophenyl)ethyl]-2-{[({[4-(methylthio)phenyl]amino}carbonyl)amino]methyl}-1,3-thiazole-4-carboxamide]
COc1cc(CCNC(=O)c2csc(CNC(=O)COc3ccc(OC(F)(F)F)cc3)n2)cc(OC)c1 [Entry 30, N-{2-[3,5-bis(methyloxy)phenyl]ethyl}-2-({[({4-[(trifluoromethyl)oxy]phenyl}oxy)acetyl]amino}methyl)-1,3-thiazole-4-carboxamide]
O=C(COc1ccc(OC(F)(F)F)cc1)NCc1nc(C(=O)NC2CCCCC2)cs1 [Entry 209, N-cyclohexyl-2-({[({4-[(trifluoromethyl)oxy]phenyl}oxy)acetyl]amino}methyl)-1,3-thiazole-4-carboxamide]
O=C(COc1ccc(OC(F)(F)F)cc1)NCc1nc(C(=O)NCCC2=CCCCC2)cs1 [Entry 35, N-(2-cyclohex-1-en-1-ylethyl)-2-({[({4-[(trifluoromethyl)oxy]phenyl}oxy)acetyl]amino}methyl)-1,3-thiazole-4-carboxamide]
CCOc1ccc(NC(=O)NCc2nc(C(=O)NCCc3cccc(Cl)c3)cs2)cc1 [Entry 184, N-[2-(3-chlorophenyl)ethyl]-2-{[({[4-(ethyloxy)phenyl]amino}carbonyl)amino]methyl}-1,3-thiazole-4-carboxamide]
CCOc1ccccc1CNC(=O)c1csc(CNC(=O)COc2ccc(OC(F)(F)F)cc2)n1 [Entry 58, N-{[2-(ethyloxy)phenyl]methyl}-2-({[({4-[(trifluoromethyl)oxy]phenyl}oxy)acetyl]amino}methyl)-1,3-thiazole-4-carboxamide]
Cc1ccc(CNC(=O)c2csc(CNC(=O)COc3ccc(OC(F)(F)F)cc3)n2)cc1 [Entry 170, N-[(4-methylphenyl)methyl]-2-({[({4-[(trifluoromethyl)oxy]phenyl}oxy)acetyl]amino}methyl)-1,3-thiazole-4-carboxamide]
O=C(COc1ccc(OC(F)(F)F)cc1)NCc1nc(C(=O)NCCc2c[nH]c3ccccc23)cs1 [Entry 45, N-[2-(1H-indol-3-yl)ethyl]-2-({[({4-[(trifluoromethyl)oxy]phenyl}oxy)acetyl]amino}methyl)-1,3-thiazole-4-carboxamide]
